Experimental data reported in PubChem BioAssay AID179 (DTP/NCI, 2004).
Activity calls are given as the source filed them.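 The calls were made as follows: active = compounds giving half or more protection of infected cells from virus-caused growth loss, again on retest; inactive = the rest.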

Test system: CEM cells HIV-1 protection, formazan growth assay
Assay: NCI AIDS Antiviral Assay
Conditions: for IC50: measured here: growth of uninfected CEM cells
Method in brief: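 Soluble formazan readout of cell growth; CEM cells ± HIV-1; 5 drug concs. ≥50% protection → retest; ≥50% again = moderately active; reproducible 100% = confirmed active.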

Compound	EC50	IC50	outcome
CC(=O)OCC1OC(n2c(=O)[nH]c(=O)c3sccc32)C(Br)C1OC(C)=O (stereo unspecified)	> 200 µM	> 200 µM	–
c1ccc(SC2(Sc3ccccc3)CCCCCCCCCCC2)cc1	> 200 µM	166 µM	–
COc1ccc(CNc2cnc3ccc(N)cc3n2)cc1OC	> 115 µM	> 115 µM	–
Clc1cccc(Cl)c1C1SCc2nc3ncccc3n21 (stereo unspecified)	32.4 µM	105 µM	–
CC(C)CCCC(C)[C@H]1CCC2[C@H]3C(CC[C@@]21C)[C@@]1(C)CCC=C[C@]12C[C@@H]2[C@@H]3O (stereo partly specified)	–	–	inactive
O=C(c1ccc(Cl)cc1)c1ccc(OCCCOc2ccc(C(=O)c3ccc(Cl)cc3)cc2Cl)c(Cl)c1	> 4.79 µM	> 4.79 µM	–
CC/C(=C(\C#N)c1ccc(OC)cc1)c1ccc(N(C)C)cc1	> 20 µM	0.871 µM	–
C=C=C(CC(CC(=C)Br)(C(=O)OC)C(=O)OC)S(=O)(=O)c1ccccc1	> 200 µM	1.45 µM	–
Cc1nc2sccn2c1C(=O)N/N=C1\SCC(=O)N1C	> 427 µM	> 427 µM	–
C=C=C(C)C(c1ccccc1)N(C)C (stereo unspecified)	> 1050 µM	> 1050 µM	–
O=C(O)c1c(CC(Cc2ccccc2)C(=O)O)ccc2c1CCC2 (stereo unspecified)	> 200 µM	> 200 µM	–
Cc1ccc(/C=C2\Sc3scc(-c4ccccc4)[n+]3C2=O)cc1	> 200 µM	89.1 µM	–
NNC(=O)Cn1ccnn1	> 200 µM	> 200 µM	–
C[C@@H]1O[C@]2(O)[C@@H]3CCCN3S(=O)(=O)CCN2C1=O	> 912 µM	> 912 µM	–
Nc1nc(Cl)cc(NC23CC4CC(CC(C4)C2)C3)n1	> 200 µM	> 200 µM	–
CC/C=C\C/C=C\C/C=C\CCCCCCCC(=O)OCC	> 200 µM	105 µM	–
COC(=Nc1ccccc1)SSC(C)C	> 200 µM	2.82 µM	–
CCOC(=O)NC(=O)c1cn(CCCCCOC(=O)NCCCCCCNC(=O)OCCCCCn2cc(C(=O)NC(=O)OCC)c(=O)[nH]c2=O)c(=O)[nH]c1=O	–	–	inactive
CCOC(=O)C(=CN1CC(=O)NC1=S)C(=O)OCC	> 200 µM	> 200 µM	–
Clc1cc2nc[nH]c2cc1Cl	> 269 µM	141 µM	–
CC(=O)OC1C[C@@H](C)C2(C[C@H](O)c3ccoc3)C(=O)OC[C@]13C2CCC(O)C31CO1 (stereo partly specified)	> 200 µM	> 200 µM	–

Compound	EC50	IC50	outcome
COc1cc(N)ccc1Nc1c2ccccc2nc2ccccc12	> 200 µM	1.02 µM	–
COc1cc2c(cc1OC)[C@H]1C(COC(=O)Nc3ccccc3)CN1CC2 (stereo partly specified)	> 676 µM	93.3 µM	–
CC1OC(=O)C(C(C)C)NC(=O)C(C(C)C)OC(=O)C(C(C)C)NC(=O)C(C)OC(=O)C(C(C)C)NC(=O)C(C(C)C)OC(=O)C(C(C)C)NC(=O)C(C)OC(=O)C(C(C)C)NC(=O)C(C(C)C)OC(=O)C(C(C)C)NC1=O (stereo unspecified)	> 0.02 µM	0.00102 µM	–
COc1ccc(=O)n(C)n1	> 1780 µM	1450 µM	–
O=C1CCCCCCCCCCC1Sc1ccccc1 (stereo unspecified)	> 12.3 µM	> 12.3 µM	–
Cc1cc(=O)[nH]c(CO)n1	> 200 µM	> 200 µM	–
CC1(C)OC[C@@H]([C@H](C=O)OCc2ccccc2)O1	> 200 µM	> 200 µM	–
CCOC(=O)C1=C(Nc2cccc3ccccc23)OC/C1=N\NC(=O)c1ccccc1O	> 60.3 µM	17.4 µM	–
CC(=O)NC(CCC(=O)C=[N+]=N)C(=O)O (stereo unspecified)	> 200 µM	29.5 µM	–
Nc1nc(F)nc2c1ncn2CC(O)CO (stereo unspecified)	> 1100 µM	1.78 µM	–
OCCOc1ccc(-c2cc(-c3ccccn3)nc(-c3ccccn3)c2)cc1	> 3.72 µM	0.646 µM	–
Cc1cccc(C)c1NC(=O)C(=O)C(C(=O)c1ccccc1-c1ccccc1)C1OC(=O)c2ccccc21 (stereo unspecified)	> 135 µM	24.5 µM	–
CCn1c2ccccc2c2c3ncc4cccn4c3ccc21	> 200 µM	135 µM	–
COc1c(-c2ccc3c(c2)OCO3)oc2cc(O)cc(O)c2c1=O	> 200 µM	115 µM	–
CSC1=Nc2ccccc2-c2nc(-c3ccccc3)cc(-c3ccccc3)c2C1	> 200 µM	> 200 µM	–
Cc1[nH]c(NC(=O)C(=O)O)c(C#N)c1C	> 200 µM	> 200 µM	–
O=C1C2C3C=C4c5ccccc5N(c5ccccc5)C4([C@@H]2C(=O)N1c1ccc(F)cc1)[C@H]1C(=O)N(c2ccc(F)cc2)C(=O)[C@@H]31 (stereo partly specified)	> 12 µM	> 12 µM	–
C[N+](C)(C)CC(=O)N/N=C(/C(=O)Nc1ccc(Br)cc1)C1C(=O)NC(=O)NC1=O	> 200 µM	> 200 µM	–
CC(C)=CCNc1ncnc2c1ncn2CCC(=O)O	> 200 µM	> 200 µM	–
CCCCCc1cc(CCCC)sc1-c1ccco1	> 200 µM	145 µM	–
Nc1c(N=Nc2ccc(-c3ccc(N=Nc4c(S(=O)(=O)O)cc5cc(S(=O)(=O)O)c(N=Nc6ccccc6)c(O)c5c4N)cc3)cc2)ccc2c(S(=O)(=O)O)cccc12	–	–	inactive
